Data as given in patent publication US20250197374A1, “WEE1 DEGRADING COMPOUNDS AND USES THEREOF” (BRISTOL-MYERS SQUIBB COMPANY, priority 2023, published 2025).

What was measured:
Type in all cases: cell-based
MDA-MB-231 cells = assay: MDA-MB-231 cell proliferation assay (Cell-Titer-Glo, 120 hr); conditions: for EC50: Homo sapiens, MDA-MB-231, 120 h, read-out: MDA-MB 231 Cell Prolif. 120 hr EC50; for MDA-MB 231 Cell Prolif. 120 hr YMin (%): minimal percent of DMSO control observed
In short: (§1)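 Growth inhibition was read as CellTiter-Glo luminescence after 120 h at 37 °C in RPMI/10% FBS, with 400 MKN45 or 800 MDA-MB-231 cells seeded per well. Compounds were tested in 10-point half-log series starting at 1 or 10 uM (0.1% DMSO), in triplicate for MKN45 and duplicate for MDA-MB-231. EC50 values are four-parameter fits to %DMSO control, and Ymin-obs is the minimal observed %DMSO.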

MKN45 cells = assay: MKN45 cell proliferation assay (Cell-Titer-Glo, 120 hr); conditions: for EC50: Homo sapiens, MKN-45, 120 h, read-out: MKN45 Cell Prolif. 120 hr EC50; for MKN45 Cell Prolif. 120 hr YMin (%): minimal percent of DMSO control observed
In short: as §1

WEE1 = target: T1, WEE1 (Homo sapiens, UniProt P30291+Q96SW2); assay: WEE1-ePL degradation assay (293T-LentiX, InCELL Hunter luminescence, 4 hr); conditions: for DC50: LentiX-HEK293T cells expressing WEE1-ePL, 4 hr incubation, read-out: 293T-LentiX WEE1-ePL Degradation 4 hr EC50; for 293T-LentiX WEE1-ePL Degradation 4 hr YMin (%): lower limit of fit, % of DMSO control signal remaining
T1 construct: C-terminal ePL-tagged (DiscoverX, Fremont, CA) full-length WEE1 expression construct; expressed in transfected cells; host or cells: LentiX-HEK293T (Invitrogen), lentivirally transduced; the cells also over-express GSPT1-GN
T1 sequence (P30291 whole entry): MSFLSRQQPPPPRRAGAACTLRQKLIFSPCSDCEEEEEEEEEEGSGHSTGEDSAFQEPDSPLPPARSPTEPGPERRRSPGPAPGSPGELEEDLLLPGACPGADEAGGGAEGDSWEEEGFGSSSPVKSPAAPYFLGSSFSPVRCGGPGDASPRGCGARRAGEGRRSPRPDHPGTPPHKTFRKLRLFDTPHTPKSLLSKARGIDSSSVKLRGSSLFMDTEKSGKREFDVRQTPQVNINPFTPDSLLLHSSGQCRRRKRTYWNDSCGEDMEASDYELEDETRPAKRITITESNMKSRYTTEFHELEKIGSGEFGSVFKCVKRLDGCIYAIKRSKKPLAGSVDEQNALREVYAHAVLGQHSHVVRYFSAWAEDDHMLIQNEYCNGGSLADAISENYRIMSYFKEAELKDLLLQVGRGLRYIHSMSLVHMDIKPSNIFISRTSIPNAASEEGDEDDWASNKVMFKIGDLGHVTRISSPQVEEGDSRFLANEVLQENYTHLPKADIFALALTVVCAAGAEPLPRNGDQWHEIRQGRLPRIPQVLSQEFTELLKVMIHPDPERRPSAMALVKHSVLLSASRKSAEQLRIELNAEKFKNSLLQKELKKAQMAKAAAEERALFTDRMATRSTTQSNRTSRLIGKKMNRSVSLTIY
T1 sequence (Q96SW2 whole entry): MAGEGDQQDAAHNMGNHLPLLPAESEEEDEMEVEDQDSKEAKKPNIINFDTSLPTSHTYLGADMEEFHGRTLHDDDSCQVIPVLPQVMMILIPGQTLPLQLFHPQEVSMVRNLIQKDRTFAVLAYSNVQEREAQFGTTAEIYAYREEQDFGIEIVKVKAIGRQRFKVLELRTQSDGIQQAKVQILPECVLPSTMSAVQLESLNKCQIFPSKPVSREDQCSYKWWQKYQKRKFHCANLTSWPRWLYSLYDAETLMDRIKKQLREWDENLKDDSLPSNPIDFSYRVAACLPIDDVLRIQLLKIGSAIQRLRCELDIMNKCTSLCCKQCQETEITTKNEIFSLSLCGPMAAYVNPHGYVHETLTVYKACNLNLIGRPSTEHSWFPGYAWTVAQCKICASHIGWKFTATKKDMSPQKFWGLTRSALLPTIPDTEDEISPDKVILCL
T1 sequence (Q16531 whole entry partner): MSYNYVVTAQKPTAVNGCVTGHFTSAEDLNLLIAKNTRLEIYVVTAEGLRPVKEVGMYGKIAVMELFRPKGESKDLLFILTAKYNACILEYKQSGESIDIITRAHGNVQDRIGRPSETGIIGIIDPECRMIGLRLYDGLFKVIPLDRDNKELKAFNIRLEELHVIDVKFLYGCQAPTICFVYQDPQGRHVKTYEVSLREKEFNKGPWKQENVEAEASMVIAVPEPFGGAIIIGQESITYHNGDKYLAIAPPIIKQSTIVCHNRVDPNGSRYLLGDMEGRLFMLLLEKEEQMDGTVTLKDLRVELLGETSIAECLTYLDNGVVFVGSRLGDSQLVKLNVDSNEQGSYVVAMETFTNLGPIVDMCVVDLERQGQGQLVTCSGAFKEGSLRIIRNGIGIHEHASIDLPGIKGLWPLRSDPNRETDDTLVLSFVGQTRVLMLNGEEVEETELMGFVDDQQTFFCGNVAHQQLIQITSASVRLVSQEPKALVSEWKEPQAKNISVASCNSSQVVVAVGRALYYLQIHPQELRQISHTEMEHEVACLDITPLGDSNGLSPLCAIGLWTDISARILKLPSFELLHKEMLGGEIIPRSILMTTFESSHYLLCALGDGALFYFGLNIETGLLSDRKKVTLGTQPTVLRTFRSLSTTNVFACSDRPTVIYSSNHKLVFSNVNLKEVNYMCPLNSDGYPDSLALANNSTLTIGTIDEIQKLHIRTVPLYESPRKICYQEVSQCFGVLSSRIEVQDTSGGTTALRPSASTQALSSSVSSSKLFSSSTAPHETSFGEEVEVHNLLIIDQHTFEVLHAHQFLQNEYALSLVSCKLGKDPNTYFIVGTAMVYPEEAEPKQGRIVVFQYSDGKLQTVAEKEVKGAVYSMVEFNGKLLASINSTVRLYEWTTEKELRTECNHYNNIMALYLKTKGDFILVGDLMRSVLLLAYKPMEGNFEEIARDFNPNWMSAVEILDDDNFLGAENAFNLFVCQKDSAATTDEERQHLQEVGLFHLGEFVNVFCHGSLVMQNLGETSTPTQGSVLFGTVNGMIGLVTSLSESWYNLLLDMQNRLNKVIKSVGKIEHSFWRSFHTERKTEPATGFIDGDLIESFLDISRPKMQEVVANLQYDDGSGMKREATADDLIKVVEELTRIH
In short: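 EC50 comes from a four-parameter logistic fit of ePL luminescence (InCELL Hunter), with DMSO control defining Ymax. Compounds ran as 10-point 3-fold dilutions from 1 or 10 µM for 4 h at 37 °C. Cells were HEK293T-LentiX with ePL-tagged full-length WEE1 and over-expressed Cereblon-resistant GSPT1-GN.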

Row | EC50 (MDA-MB-231 cells) [nM] | EC50 (MKN45 cells) [nM] | DC50 (WEE1) [nM] | 293T-LentiX WEE1-ePL Degradation 4 hr YMin (%) (WEE1) | SMILES | MDA-MB 231 Cell Prolif. 120 hr YMin (%) (MDA-MB-231 cells) | MKN45 Cell Prolif. 120 hr YMin (%) (MKN45 cells)
1 | 12 | 1 | 1 | 32.3 | COC[C@@H]1CN(Cc2ccc3nc(N4C[C@H]5CCO[C@H]5C4)ccc3c2)C[C@H]1Oc1ccc2c(c1)CN([C@H]1CCC(=O)NC1=O)C2=O (single isomer, unassigned) [Example 5, (S)-3-(5-(((3S,4S)-1-((2-((3aR*,6aR*)-hexahydro-5H-furo[2,3-c]pyrrol-5-yl)quinolin-6-yl)methyl)-4-(methoxymethyl)pyrrolidin-3-yl)oxy)-1-oxoisoindolin-2-yl)piperidine-2,6-dione] | 45.5 | 10.6
2 | 63 | 5 | 2 | 27.4 | O=C1CC[C@H](N2Cc3cc(O[C@@H]4CN(Cc5ccc6nc(N7C[C@H]8CCO[C@H]8C7)ccc6c5)CC4(F)F)ccc3C2=O)C(=O)N1 (single isomer, unassigned) [Example 6, (S)-3-(5-(((R)-4,4-difluoro-1-((2-((3aR*,6aR*)-hexahydro-5H-furo[2,3-c]pyrrol-5-yl)quinolin-6-yl)methyl)pyrrolidin-3-yl)oxy)-1-oxoisoindolin-2-yl)piperidine-2,6-dione] | 62.4 | 11.8
3 | 74 | 5 | 1 | 31.9 | O=C1CC[C@H](N2Cc3cc(O[C@H]4CCN(Cc5cc(F)c6nc(N7C[C@H]8CCO[C@H]8C7)ccc6c5)C4)ccc3C2=O)C(=O)N1 (single isomer, unassigned) [Example 7, (S)-3-(5-(((S)-1-((8-fluoro-2-((3aR*,6aR*)-hexahydro-5H-furo[2,3-c]pyrrol-5-yl)quinolin-6-yl)methyl)pyrrolidin-3-yl)oxy)-1-oxoisoindolin-2-yl)piperidine-2,6-dione] | 64.0 | 13.7
4 | 105 | 6 | 4 | 27.5 | COC[C@@H]1CN(Cc2ccc3nc(N4C[C@H]5CCO[C@H]5C4)ncc3c2)C[C@H]1Oc1ccc2c(c1)CN([C@H]1CCC(=O)NC1=O)C2=O (single isomer, unassigned) [Example 8, (S)-3-(5-(((3S,4S)-1-((2-((3aR*,6aR*)-hexahydro-5H-furo[2,3-c]pyrrol-5-yl)quinazolin-6-yl)methyl)-4-(methoxymethyl)pyrrolidin-3-yl)oxy)-1-oxoisoindolin-2-yl)piperidine-2,6-dione] | 31.9 | 10.0
5 | 366 | 11 | 6 | 32.4 | O=C1CC[C@H](N2Cc3cc(O[C@H]4CCN(Cc5cc(F)c6nc(N7C[C@H]8CCO[C@H]8C7)ncc6c5)C4)ccc3C2=O)C(=O)N1 (single isomer, unassigned) [Example 9, (S)-3-(5-(((S)-1-((8-fluoro-2-((3aR*,6aR*)-hexahydro-5H-furo[2,3-c]pyrrol-5-yl)quinazolin-6-yl)methyl)pyrrolidin-3-yl)oxy)-1-oxoisoindolin-2-yl)piperidine-2,6-dione] | 45.1 | 11.7
6 | 70 | 2 | 2 | 27.8 | COC[C@@H]1CN(Cc2cc(F)c3nc(N4C[C@H]5CCO[C@H]5C4)ncc3c2)C[C@H]1Oc1ccc2c(c1)CN([C@H]1CCC(=O)NC1=O)C2=O (single isomer, unassigned) [Example 10, (S)-3-(5-(((3S,4S)-1-((8-fluoro-2-((3aR*,6aR*)-hexahydro-5H-furo[2,3-c]pyrrol-5-yl)quinazolin-6-yl)methyl)-4-(methoxymethyl)pyrrolidin-3-yl)oxy)-1-oxoisoindolin-2-yl)piperidine-2,6-dione] | 24.6 | 10.6
7 | 525 | 33 | 4 | 30.4 | O=C1CCC(N2C(=O)c3ccc(O[C@H]4CCN(Cc5cc(F)c6nc(C7CCOCC7)ccc6c5)C4)cc3C2=O)C(=O)N1 (single isomer, unassigned) [Example 11, 2-((S*)-2,6-dioxopiperidin-3-yl)-5-(((S)-1-((8-fluoro-2-(tetrahydro-2H-pyran-4-yl)quinolin-6-yl)methyl)pyrrolidin-3-yl)oxy)isoindoline-1,3-dione] | 53.2 | 12.1
8 | 61 | 3 | 1 | 22.1 | COC[C@@H]1CN(Cc2cc(F)c3nc(N4C[C@@H]5CCO[C@@H]5C4)ncc3c2)C[C@H]1Oc1ccc2c(c1)CN([C@H]1CCC(=O)NC1=O)C2=O (single isomer, unassigned) [Example 13, (S)-3-(5-(((3S,4S)-1-((8-fluoro-2-((3aS*,6aS*)-hexahydro-5H-furo[2,3-c]pyrrol-5-yl)quinazolin-6-yl)methyl)-4-(methoxymethyl)pyrrolidin-3-yl)oxy)-1-oxoisoindolin-2-yl)piperidine-2,6-dione] | 37.3 | 11.9
9 | 63 | 6 | 3 | 31.8 | O=C1CC[C@H](N2Cc3cc(O[C@@H]4CN(Cc5cc(F)c6nc(N7C[C@H]8CCO[C@H]8C7)ccc6c5)CC4(F)F)ccc3C2=O)C(=O)N1 (single isomer, unassigned) [Example 14, (S)-3-(5-(((R)-4,4-difluoro-1-((8-fluoro-2-((3aR*,6aR*)-hexahydro-5H-furo[2,3-c]pyrrol-5-yl)quinolin-6-yl)methyl)pyrrolidin-3-yl)oxy)-1-oxoisoindolin-2-yl)piperidine-2,6-dione] | 34.4 | 10.2
10 | 73 | 6 | 2 | 28.4 | O=C1CC[C@H](N2Cc3cc(O[C@@H]4CN(Cc5cc(F)c6nc(N7C[C@@H]8CCO[C@@H]8C7)ccc6c5)CC4(F)F)ccc3C2=O)C(=O)N1 (single isomer, unassigned) [Example 15, (S)-3-(5-(((R)-4,4-difluoro-1-((8-fluoro-2-((3aS*,6aS*)-hexahydro-5H-furo[2,3-c]pyrrol-5-yl)quinolin-6-yl)methyl)pyrrolidin-3-yl)oxy)-1-oxoisoindolin-2-yl)piperidine-2,6-dione] | 31.4 | 8.8
11 | 48 | 2 | – | 29.6 | COC[C@@H]1CN(Cc2ccc3nc(N4C[C@@H]5CCO[C@@H]5C4)ccc3c2)C[C@H]1Oc1ccc2c(c1)CN([C@H]1CCC(=O)NC1=O)C2=O (single isomer, unassigned) [Example 16, (S)-3-(5-(((3S,4S)-1-((2-((3aS*,6aS*)-hexahydro-5H-furo[2,3-c]pyrrol-5-yl)quinolin-6-yl)methyl)-4-(methoxymethyl)pyrrolidin-3-yl)oxy)-1-oxoisoindolin-2-yl)piperidine-2,6-dione] | 43.7 | 10.8
12 | 45 | 5 | 2 | 25.6 | O=C1CC[C@H](N2Cc3cc(O[C@@H]4CN(Cc5ccc6nc(N7C[C@@H]8CCO[C@@H]8C7)ccc6c5)CC4(F)F)ccc3C2=O)C(=O)N1 (single isomer, unassigned) [Example 17, (S)-3-(5-(((R)-4,4-difluoro-1-((2-((3aS*,6aS*)-hexahydro-5H-furo[2,3-c]pyrrol-5-yl)quinolin-6-yl)methyl)pyrrolidin-3-yl)oxy)-1-oxoisoindolin-2-yl)piperidine-2,6-dione] | 47.2 | 13.2
13 | 73 | 7 | 3 | 29.8 | COC[C@@H]1CN(Cc2ccc3nc(N4C[C@@H]5CCO[C@@H]5C4)ncc3c2)C[C@H]1Oc1ccc2c(c1)CN([C@H]1CCC(=O)NC1=O)C2=O (single isomer, unassigned) [Example 18, (S)-3-(5-(((3S,4S)-1-((2-((3aS*,6aS*)-hexahydro-5H-furo[2,3-c]pyrrol-5-yl)quinazolin-6-yl)methyl)-4-(methoxymethyl)pyrrolidin-3-yl)oxy)-1-oxoisoindolin-2-yl)piperidine-2,6-dione] | 28.4 | 10.1
